Results as given in PubChem BioAssay AID298 (DTP/NCI, 2004).
“And” between values parts separate entries of the source, which are not always exact repeats. Equal values may be shown once. Results filed as inconclusive are left out.

Test system: MX-1 breast xenograft, intrarenal, nude mice, tumor weight
Assay: NCI In Vivo Anticancer Drug Screen. Data for tumor model Human Mammary Carcinoma MX-1 Xenograft (intrarenal inoculation) in NU/NU BALB/C (nude) mice
Conditions: endpoint: mean tumor weight change, higher = larger tumour
How it was run: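 Antitumor activity is expressed as a T/C ratio. The treated group's tumor size or survival is compared against the vehicle-treated control group in mice bearing transplanted tumors.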

[1] = dose: 300.0 mg/kg/injection, schedule: Q04DX003 (sc), vehicle: Klucel (hydroxypropylcellulose) (HPC)
[2] = dose: 100.0 mg/kg/injection, schedule: Q04DX003 (ip), vehicle: saline with Tween-80
[3] = dose: 200.0 mg/kg/injection, schedule: Q04DX003 (ip), vehicle: saline with Tween-80
[4] = dose: 400.0 mg/kg/injection, schedule: Q04DX003 (ip), vehicle: saline with Tween-80
[5] = dose: 150.0 mg/kg/injection, schedule: Q04DX003 (ip), vehicle: saline with Tween-80
[6] = dose: 300.0 mg/kg/injection, schedule: Q04DX003 (ip), vehicle: saline with Tween-80
[7] = dose: 50.0 mg/kg/injection, schedule: Q04DX003 (ip), vehicle: saline with Tween-80

For Cc1ccc(S(=O)(=O)NC(=O)C2C(=O)CC3(CCCCC3)CC2=O)cc1, which T/C [1] is on record?
Its T/C is 81 % of control.

What about the T/C (dose: 600.0 mg/kg/injection, schedule: Q04DX003 (sc), vehicle: Klucel (hydroxypropylcellulose) (HPC)) of the same compound?
The T/C was 95 % of control.

What about the T/C (dose: 1200.0 mg/kg/injection, schedule: Q04DX003 (sc), vehicle: Klucel (hydroxypropylcellulose) (HPC)) of the same compound?
Its T/C is 121 % of control.

What about the T/C (dose: 2400.0 mg/kg/injection, schedule: Q04DX003 (sc), vehicle: Klucel (hydroxypropylcellulose) (HPC)) of the same compound?
The T/C was 117 % of control.

Which T/C [2] does the source give for OC1OCC(COc2ccc(Cl)cc2)OC1O (centres undefined) here?
Its T/C is 78 % of control.

What about the T/C [3] of the same compound?
The T/C was 75 % of control.

And the T/C [4]?
The T/C was 92 % of control.

Which results are given for N#CCS(=O)(=O)c1cccc[n+]1[O-]?
T/C [5]: 77 % of control; T/C [6]: 67 % of control

For CCCCCCCC1C(=O)OC2CC3C(C)=CC(=O)C(O)C3(C)C3C4(O)OCC23C1C(C)C4O (centres undefined), which T/C (dose: 10.0 mg/kg/injection, schedule: Q04DX003 (ip), vehicle: Klucel (hydroxypropylcellulose) (HPC)) is on record?
The T/C was 89 % of control.

What about the T/C (dose: 20.0 mg/kg/injection, schedule: Q04DX003 (ip), vehicle: Klucel (hydroxypropylcellulose) (HPC)) of the same compound?
Its T/C is 107 % of control.

And the T/C (dose: 40.0 mg/kg/injection, schedule: Q04DX003 (ip), vehicle: Klucel (hydroxypropylcellulose) (HPC))?
Its T/C is 53 % of control.

For O=NNc1ccc(Cl)cn1, which T/C (dose: 4.7 mg/kg/injection, schedule: Q04DX003 (ip), vehicle: water) is on record?
Its T/C is 60 % of control.

What about the T/C (dose: 9.4 mg/kg/injection, schedule: Q04DX003 (ip), vehicle: water) of the same compound?
The T/C was 59 % of control.

What about the T/C (dose: 18.7 mg/kg/injection, schedule: Q04DX003 (ip), vehicle: water) of the same compound?
Its T/C is 29 % of control.

And the T/C (dose: 37.5 mg/kg/injection, schedule: Q04DX003 (ip), vehicle: water)?
The T/C was 4 % of control.

Which T/C (dose: 150.0 mg/kg/injection, schedule: Q04DX003 (ip), vehicle: Klucel (hydroxypropylcellulose) (HPC)) does the source give for CC1=C(C(N)=O)C(c2ccccc2)NC(=S)N1 (centres undefined) here?
Its T/C is 87 % of control.

For CN=C(N)c1ccc(N=C(N)c2ccc(C(N)=Nc3ccc(C(N)=NC)cc3)cc2)cc1, which T/C (dose: 15.0 mg/kg/injection, schedule: Q04DX003 (ip), vehicle: saline) is on record?
Its T/C is 96 % of control.

What about the T/C (dose: 30.0 mg/kg/injection, schedule: Q04DX003 (ip), vehicle: saline) of the same compound?
The T/C was 118 % of control.

With C=CC(=O)N1CN(C(=O)C=C)CN(C(=O)C=C)C1 as the compound, how does the T/C (dose: 6.25 mg/kg/injection, schedule: Q01DX010 (sc), vehicle: saline with Tween-80) read?
The T/C was 116 % of control.

What about the T/C (dose: 12.5 mg/kg/injection, schedule: Q01DX010 (sc), vehicle: saline with Tween-80) of the same compound?
Its T/C is 179 % of control.

Which results are given for CNc1ncn(-c2c(C)cccc2C)c(=O)n1?
T/C [5]: 92 % of control and 97 % of control; T/C [6]: 77 % of control; T/C (dose: 600.0 mg/kg/injection, schedule: Q04DX003 (ip), vehicle: saline with Tween-80): 25 % of control

How did the T/C (dose: 200.0 mg/kg/injection, schedule: Q04DX003 (sc), vehicle: saline) turn out when O=[N+]([O-])O.[Ga] was run?
The T/C was 61 % of control.

And the T/C (dose: 400.0 mg/kg/injection, schedule: Q04DX003 (sc), vehicle: saline)?
Its T/C is 67 % of control.

What about the T/C (dose: 800.0 mg/kg/injection, schedule: Q04DX003 (sc), vehicle: saline) of the same compound?
The T/C was 81 % of control.

And the T/C (dose: 1600.0 mg/kg/injection, schedule: Q04DX003 (sc), vehicle: saline)?
The T/C was 74 % of control.

With C=C1COC(O)(C2OCOC(C3CC(=O)NC(=O)C3)C2O)C1C (centres undefined) as the compound, how does the T/C (dose: 37.5 micrograms/kg/injection, schedule: Q04DX003 (ip), vehicle: water) read?
The T/C was 117 % of control.

For C/C(=N\NC(=S)N1CCN(c2ccccn2)CC1)c1ccccn1, which T/C (dose: 75.0 mg/kg/injection, schedule: Q04DX003 (sc), vehicle: water) is on record?
Its T/C is 104 % of control.

For C[C@@](O)(/C=C/[C@H]1CC=CC(=O)O1)[C@@H](C[C@@H](O)\C=C/C=C\C=C\CO)OP(=O)(O)O, which T/C (dose: 1.5 mg/kg/injection, schedule: Q01DX009 (ip), vehicle: other) is on record?
Its T/C is 113 % of control.

And the T/C (dose: 6.0 mg/kg/injection, schedule: Q01DX009 (ip), vehicle: other)?
The T/C was 57 % of control.

What about the T/C (dose: 12.0 mg/kg/injection, schedule: Q01DX009 (ip), vehicle: other) of the same compound?
The T/C was 61 % of control.

What about the T/C (dose: 37.5 mg/kg/injection, schedule: Q04DX003 (sc), vehicle: other) of the same compound?
The T/C was 29 % of control.

Which results are given for COc1cccc2c1C(=O)c1c(O)c3c(c(O)c1C2=O)CC(O)(C(=O)CO)CC3OC1CC(N)C(O)C(C)O1 (centres undefined)?
T/C (dose: 25.0 mg/kg/injection, schedule: Q01DX010 (sc), vehicle: saline): 41 % of control; T/C (dose: 50.0 mg/kg/injection, schedule: Q01DX010 (sc), vehicle: saline): 22 % of control

What does the source list for CCc1nc(N)nc(N)c1-c1ccc(Cl)c([N+](=O)[O-])c1?
T/C (dose: 18.75 mg/kg/injection, schedule: Q04DX003 (sc), vehicle: saline with Tween-80): 99 % of control; T/C (dose: 37.5 mg/kg/injection, schedule: Q04DX003 (sc), vehicle: saline with Tween-80): 71 % of control; T/C (dose: 75.0 mg/kg/injection, schedule: Q04DX003 (sc), vehicle: saline with Tween-80): 82 % of control

How did the T/C [7] turn out when CN(C)CCNc1ccc(CO)c2sc3ccc(O)cc3c(=O)c12 was run?
The T/C was 30 % of control.

What about the T/C [2] of the same compound?
Its T/C is 25 % of control and 26 % of control and 28 % of control.

What about the T/C [3] of the same compound?
The T/C was 6 % of control and 17 % of control and 28 % of control.

What about the T/C [4] of the same compound?
The T/C was 5 % of control and 10 % of control and 18 % of control.

CNCCN=c1ccc2c3c1c(O)c1c(O)ccc(=O)c1c3[nH]n2CCNCCO was tested. Which T/C (dose: 1.56 mg/kg/injection, schedule: Q04DX003 (ip), vehicle: water) did it give?
Its T/C is 7 % of control and 17 % of control and 26 % of control.

What about the T/C (dose: 3.12 mg/kg/injection, schedule: Q04DX003 (ip), vehicle: water) of the same compound?
Its T/C is 1 % of control and 5 % of control and 8 % of control.

For COc1cc(/C=C/[N+](=O)[O-])cc(Br)c1OC, which T/C (dose: 6.25 mg/kg/injection, schedule: Q04DX003 (ip), vehicle: saline with Tween-80) is on record?
Its T/C is 81 % of control.

What about the T/C (dose: 12.5 mg/kg/injection, schedule: Q04DX003 (ip), vehicle: saline with Tween-80) of the same compound?
Its T/C is 104 % of control.

What about the T/C (dose: 25.0 mg/kg/injection, schedule: Q04DX003 (ip), vehicle: saline with Tween-80) of the same compound?
Its T/C is 92 % of control and 105 % of control.

What about the T/C [7] of the same compound?
The T/C was 96 % of control.

How did the T/C (dose: 100.0 mg/kg/injection, schedule: Q01DX010 (sc), vehicle: Klucel (hydroxypropylcellulose) (HPC)) turn out when O=C(NO)c1ccccc1 was run?
The T/C was 89 % of control.

What about the T/C (dose: 200.0 mg/kg/injection, schedule: Q01DX010 (sc), vehicle: Klucel (hydroxypropylcellulose) (HPC)) of the same compound?
Its T/C is 61 % of control.

What about the T/C (dose: 400.0 mg/kg/injection, schedule: Q01DX010 (sc), vehicle: Klucel (hydroxypropylcellulose) (HPC)) of the same compound?
The T/C was 21 % of control.

Which T/C (dose: 150.0 mg/kg/injection, schedule: Q04DX003 (sc), vehicle: Klucel (hydroxypropylcellulose) (HPC)) does the source give for CC(C)NC(=O)N(CCCCBr)N=O here?
The T/C was -61 % of control.

And the T/C [1]?
The T/C was -100 % of control.

What does the source list for CS(=O)(=O)CS(=O)(=O)OCCCl?
T/C (dose: 21.6 mg/kg/injection, schedule: Q04DX003 (ip), vehicle: other): 61 % of control; T/C (dose: 36.0 mg/kg/injection, schedule: Q04DX003 (ip), vehicle: other): 28 % of control; T/C (dose: 37.5 mg/kg/injection, schedule: Q04DX003 (sc), vehicle: suspension in saline): 106 % of control; T/C (dose: 60.0 mg/kg/injection, schedule: Q04DX003 (ip), vehicle: other): 25 % of control; T/C (dose: 75.0 mg/kg/injection, schedule: Q04DX003 (sc), vehicle: suspension in saline): 106 % of control; T/C (dose: 99.6 mg/kg/injection, schedule: Q04DX003 (ip), vehicle: dextrose): 100 % of control; T/C (dose: 99.6 mg/kg/injection, schedule: Q04DX003 (ip), vehicle: other): 19 % of control; T/C (dose: 100.0 mg/kg/injection, schedule: Q04DX003 (ip), vehicle: other): 43 % of control; T/C (dose: 150.0 mg/kg/injection, schedule: Q04DX003 (sc), vehicle: suspension in saline): 54 % of control; T/C (dose: 166.0 mg/kg/injection, schedule: Q04DX003 (ip), vehicle: dextrose): 37 % of control; T/C (dose: 166.0 mg/kg/injection, schedule: Q04DX003 (ip), vehicle: other): 13 % of control; T/C (dose: 166.7 mg/kg/injection, schedule: Q04DX003 (ip), vehicle: other): 20 % of control; T/C (dose: 276.67 mg/kg/injection, schedule: Q04DX003 (ip), vehicle: dextrose): 19 % of control; T/C (dose: 276.67 mg/kg/injection, schedule: Q04DX003 (ip), vehicle: other): 10 % of control

Which results are given for NC(=S)N/N=C/c1ccc(O)cn1?
T/C (dose: 100.0 mg/kg/injection, schedule: Q04DX003 (sc), vehicle: saline with Tween-80): 88 % of control; T/C (dose: 200.0 mg/kg/injection, schedule: Q04DX003 (sc), vehicle: saline with Tween-80): 101 % of control; T/C (dose: 400.0 mg/kg/injection, schedule: Q04DX003 (sc), vehicle: saline with Tween-80): 92 % of control

CC1(C)OCC2OC=CC(=O)C2O1 (centres undefined) was tested. Which T/C (dose: 150.0 mg/kg/injection, schedule: Q04DX003 (sc), vehicle: saline) did it give?
Its T/C is 110 % of control.

What about the T/C (dose: 300.0 mg/kg/injection, schedule: Q04DX003 (sc), vehicle: saline) of the same compound?
The T/C was 97 % of control.

What about the T/C (dose: 600.0 mg/kg/injection, schedule: Q04DX003 (sc), vehicle: saline) of the same compound?
The T/C was 74 % of control.
